Test results: article PMC3942289, “Characterization of Ten Heterotetrameric NDP-Dependent Acyl-CoA Synthetases of the Hyperthermophilic Archaeon Pyrococcus furiosus” (Archaea, 2014)

Target: T1, ACS5-G (Pyrococcus furiosus, UniProt E7FHP1+Q8TZY7)
T1 construct: gene PF1838
Conditions: reverse reaction; 20 mM acid, 1 mM ATP or GTP, 0.5 mM CoA, 2 mM MgCl2, pH 7.0, 80°C

T1 sequence (Q8TZY7 1-473): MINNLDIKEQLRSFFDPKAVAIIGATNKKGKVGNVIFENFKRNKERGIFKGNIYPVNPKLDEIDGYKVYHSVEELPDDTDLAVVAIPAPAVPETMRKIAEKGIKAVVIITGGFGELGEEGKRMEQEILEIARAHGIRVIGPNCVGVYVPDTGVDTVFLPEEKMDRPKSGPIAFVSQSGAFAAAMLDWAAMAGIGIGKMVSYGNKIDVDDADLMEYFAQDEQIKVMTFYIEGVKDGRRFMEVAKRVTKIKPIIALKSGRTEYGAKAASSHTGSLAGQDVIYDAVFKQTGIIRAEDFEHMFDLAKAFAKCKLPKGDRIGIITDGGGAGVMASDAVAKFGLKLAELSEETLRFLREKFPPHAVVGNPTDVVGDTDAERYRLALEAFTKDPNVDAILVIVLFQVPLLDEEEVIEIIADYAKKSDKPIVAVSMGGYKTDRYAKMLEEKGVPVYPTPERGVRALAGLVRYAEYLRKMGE
T1 sequence (E7FHP1 whole entry): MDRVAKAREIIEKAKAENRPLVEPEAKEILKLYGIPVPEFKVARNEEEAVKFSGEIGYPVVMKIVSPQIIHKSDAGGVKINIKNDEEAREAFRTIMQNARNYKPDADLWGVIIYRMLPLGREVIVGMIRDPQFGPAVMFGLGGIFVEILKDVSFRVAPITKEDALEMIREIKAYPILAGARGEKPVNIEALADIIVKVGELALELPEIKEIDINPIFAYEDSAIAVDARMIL

Compound: C[C@H](O)C(=O)O [lactate]
- relative activity: ACS5 is the only enzyme that has significant activity with lactate
